Series [1] can be described thus: In vivo neuropharmacokinetic study, plasma and brain, intraperitoneal administration. On the set-up: species or system Sprague Dawley rats. The conditions noted are these: rat; for availability in the brain (AUC0–36) higher after nanoemulsion compared to the solution: intraperitoneal administration; for AUC 0-36: brain.
Experimental: The neuropharmacokinetic study was performed after intraperitoneal administration of the optimized nanoemulsion (NE4) or a 2 mg/mL GL-II-73 solution (solvent consisting of 14% (w/v) propylene glycol and 1% (w/v) polysorbate 80 in ultrapure water). Female Sprague Dawley rats, approximately two months old and weighing 160–200 g, were housed four per cage. The animal room was kept at a temperature of 22 ± 1 °C and a relative humidity of 40–70%. The alternation of light and darkness took place in a 12 h rhythm (light at 6:00 a.m.) with an illumination of 120 lx.
The test animals were divided into two groups of 27 rats each (3 animals per time point). One group received the GL-II-73 solution, the other group the GL-II-73 nanoemulsion, each at a dose of 10 mg/kg. At predefined intervals (5 min, 15 min, 30 min, 1 h, 2 h, 4 h, 8 h, 16 h, and 36 h), the animals were anesthetized with ketamine hydrochloride 90 mg/kg (Ketamidor, Richter Pharma AG, Vienna, Austria) and blood and brain samples were taken. Blood was collected by cardiac puncture with heparinized syringes and centrifuged at 1000× g for 10 min (MiniSpin® plus centrifuge, Eppendorf, Hamburg, Germany) to separate plasma. The isolated brains were weighed and homogenized in 1 mL methanol using an ultrasonic probe. The homogenized brain samples were subsequently centrifuged at 3400× g for 20 min to collect the supernatants. Plasma and the supernatants of the brain homogenates were further purified by solid phase extraction using Oasis HLB cartridges (Waters Corporation, Milford, MA, USA). The cartridges were preconditioned with methanol and then with water prior to application of the sample and internal standard. […] The concentration of GL-II-73 and its metabolite MP-III-022 was quantified in the eluates by liquid chromatography–tandem mass spectrometry (LC-MS/MS).
Series [2] in a line: Solubility of GL-II-73 in various media, shake flask method. It counts as physicochemical. The conditions noted are these: thermodynamic from solid. The method, then:
The solubility of GL-II-73 was investigated in various media using the shake flask method. In brief, GL-II-73 was added in excess and mixed overnight on the vortex, followed by centrifugation to remove any excess of undissolved drug. The supernatants were then diluted in methanol and GL-II-73 content was determined by the LC/MS-MS method.
A liquid chromatographic system, the Accela 1000 (Thermo Fisher Scientific, San Jose, CA, USA), which includes a quaternary pump and an autosampler, was used for chromatographic analyses. All runs were performed with an XTERRA® MS C18 column (150 mm × 2.1 mm, 3.5 µm; Waters, Dublin, Ireland) maintained at 25 °C. Samples were stored in the autosampler temperature-controlled compartment at 8 °C. Isocratic elution was performed with a mixture of acetonitrile and 0.1% aqueous formic acid (60:40, v/v) at a flow rate of 300 µL/min. The total analysis time was 4.5 min. Mass spectrometric analyses were performed using a TSQ Quantum Access MAX (Thermo Fisher Scientific, Waltham, MA, USA) triple-quadrupole spectrometer equipped with a heated electrospray ionization (HESI) source. Operating conditions of the MS were optimized as follows: the spray voltage was set to 4000 V, with a skimmer offset of 0 V; the evaporator and capillary temperatures were set to 350 °C and 300 °C, respectively; nitrogen was used as both the nebulizer and auxiliary gas, with flow rates of 50 and 10 arbitrary units, respectively; and the collision gas pressure in q2 was maintained at 1.4 mTorr of argon. Data acquisition was performed with Selected Reaction Monitoring (SRM) in positive scan mode. The [M + H]^+ transitions m/z of SRM were 387.2 → 342.2 (CE 21 V), 373.1 → 314.0 (CE 29 V), and 347.0 → 302.0 (CE 28 V) for GL-II-73, MP-III-022, and SHI-I-048A (as internal standard), respectively. The Thermo Xcalibur 2.1 software was used for data acquisition.

The subject of series [3] is in vitro model of the blood–brain barrier based on human induced pluripotent stem cell-derived microvascular endothelial cells, astrocytes, and pericytes. The series is described as follows: In vitro BBB permeability test (iCell Blood-Brain Barrier Kit, tricellular model). It counts as in vitro ADME. The note with it: Pe of nanoemulsion vs solution.
Text: The iCell® Blood-Brain Barrier Kit (FUJIFILM Cellular Dynamics, Inc., Madison, WI, USA) contained the following: iCell Astrocytes, iCell BMEC (Brain Microvascular Enothelial Cells), iCell Pericytes, iCell Astrocytes & iCell Pericytes Medium, iCell BMEC Maintenance Medium, and iCell Plating Supplement 500×. […]
The iCell® Blood-Brain Barrier Kit (FUJIFILM Cellular Dynamics, Madison, WI, USA) contained astrocytes, pericytes, and brain microvascular endothelial cells. […] For comparison, the contribution of the carrier itself was evaluated using a GL-II-73 solution in ultrapure water.
The transendothelial electrical resistance (TEER) parameter was used to verify the integrity of the barrier. […] The measured TEER values were corrected with TEER values from wells with empty filters and the medium. The final TEER values (Ω × cm^2) were calculated by adjusting the corrected TEER values to the filter surface. […] For this purpose, 100 µL was taken from the basolateral side (containing 1 mL iCell Maintenance Medium) to be analyzed by LC/MS-MS. […]
The Pe parameter (permeability coefficient; cm/min) was calculated as described earlier [19, 20] and used to evaluate the rate and the effectiveness of GL-II-73 transport through the BBB. […]
The Pe value was determined by dividing the Pse values by the surface area of the membrane of the insert (cm^2).

Converted amounts (≈) assume the structure as drawn. “Also recorded” adds a separate entry of the source. Where only a bound is given, the exact number is not on record here.

As usually defined, the solubility is the dissolved amount per volume that the medium holds. Take `C#Cc1ccc2c(c1)C(c1ccccc1F)=N[C@H](C)c1c(C(=O)N(C)C)ncn1-2` [GL-II-73]: in series [1], the “availability in the brain (AUC0–36) higher after nanoemulsion compared to the solution” value is given as 24%. Also, the “sum of brain AUC0-36 values for the parent molecule and its metabolite, nanoformulation compared to the solution” value in series [1] (systemic administration) is on record as “one-third higher”. For the same compound, the solubility was 4.49 ± 0.148 mg/mL (≈ 11.6 mM) in series [2] (MCT, oil or lipid); 0.951 ± 0.0414 mg/mL (≈ 2.46 mM) in series [2] (aqueous buffer, Phosphate buffer (pH 7.4)); above 534 mg/mL in series [2] (benzyl alcohol, organic solvent or mixture); 2.82 ± 0.184 mg/mL (≈ 7.3 mM) in series [2] (castor oil, oil or lipid); 2.4 ± 0.331 mg/mL (≈ 6.2 mM) in series [2] (fish oil, oil or lipid); 131 mg/mL (≈ 339 mM) in series [2] (isopropanol, organic solvent or mixture). Moreover, the solubility in series [2] (methanol, organic solvent or mixture) was above 1470 mg/mL; in series [2] (simulated gastric fluid, 0.1 M HCl (pH 1.2)) it was 5.37 ± 0.195 mg/mL (≈ 13.9 mM); in series [2] (soybean oil, oil or lipid) it was 3.06 ± 0.137 mg/mL (≈ 7.91 mM); in series [2] (Water (pH 5.2)), 1 ± 0.0399 mg/mL (≈ 2.59 mM). Moreover, the “Permeability of GL-II-73 through the BBB, nanoemulsion relative to solution” value in series [3] is given as “twice as high; also recorded: more than twofold higher”.
`C#Cc1ccc2c(c1)C(c1ccccc1F)=N[C@H](C)c1c(C(=O)NC)ncn1-2` [MP-III-022]: the “AUC 0-36” value in series [1] (metabolite MP-III-022 after 10 mg/kg GL-II-73 nanoemulsion NE4 i.p.) turned out to be 167.36 ± 70.56 ng·h/g; in series [1] (metabolite MP-III-022 after 10 mg/kg GL-II-73 solution i.p.), 103.75 ± 2.05 ng·h/g. For the same compound, in series [1], the “availability in the brain (AUC0–36) higher after nanoemulsion compared to the solution” value stood at 61%.

The values are drawn from publication PMC11944986, “Parenteral Nanoemulsion for Optimized Delivery of GL-II-73 to the Brain—Comparative In Vitro Blood–Brain Barrier and In Vivo Neuropharmacokinetic Evaluation” (Pharmaceutics, 2025).
